The results in this text go back to US8003678B2, “Therapeutic substituted thiazolidinones, oxazolidinones, and related compounds” (Allergan, Inc., priority 2006, dated 2011).

What is called EC50 is the midpoint of the concentration-response curve. The low end stands for an effect from little substance, the high end for a need for much substance.

This assay has as its target EP2 (Homo sapiens, UniProt P43116). The assay can be described thus: EP2 cAMP. The format is cell-based. An excerpt: U.S. patent application Ser. No. 11/553,143, filed on Oct. 26, 2006, incorporated by reference herein, describes the methods used to obtain the in vitro data in the table below.

Sequence of EP2 (P43116 whole entry): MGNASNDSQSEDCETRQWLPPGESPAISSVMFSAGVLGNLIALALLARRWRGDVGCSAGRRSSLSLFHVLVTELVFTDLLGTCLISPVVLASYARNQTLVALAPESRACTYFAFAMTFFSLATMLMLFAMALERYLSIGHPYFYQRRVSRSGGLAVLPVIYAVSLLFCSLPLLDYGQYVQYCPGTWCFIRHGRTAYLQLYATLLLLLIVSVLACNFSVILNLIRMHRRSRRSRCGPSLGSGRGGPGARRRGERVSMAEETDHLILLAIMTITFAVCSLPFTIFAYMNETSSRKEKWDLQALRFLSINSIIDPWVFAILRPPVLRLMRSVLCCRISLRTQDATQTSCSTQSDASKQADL

Compound `CCCCCC(O)c1ccc(N2C(=O)CSC2CCCc2ccc(C(=O)O)s2)cc1` (centres unmarked) gave an EC50 of 515 nM.

For `CCCCCC(O)c1ccc(N2C(=O)COC2CCCc2ccc(C(=O)O)s2)cc1` (centres unmarked), the EC50 is 0.06 nM.
